Measurements published in article PMC5321639, “Design and pharmacodynamics of recombinant NZ2114 histidine mutants with improved activity against methicillin-resistant Staphylococcus aureus” (AMB Express, 2017).
≈ marks a conversion by molar mass, not a printed value. Where a SMILES comes first, the peptide text is derived from it. Bridges are numbered along the chain shown (N, C = ends).

Key:
[1] = system: S. aureus ATCC43300 (MRSA); experiment: Time-kill curve assay; assay type: cell-based, Staphylococcus aureus; settings: for time for bacterial counts to decrease to 2 log10 CFU/ml (a 99.9% reduction): start 1 × 10^5 CFU/ml, 37 °C, triplicate
Protocol: Bacterial culture (S. aureus ATCC43300) was diluted to 1 × 10^5 CFU/ml and H1, H2, and H3 were added. […] The mixture was cultivated at 250 rpm, 37 °C. The 100-µl samples were taken from each flask at 0, 2, 4, 6, 8, 12 and 24 h of incubation, and serial dilutions of samples were plated to count visible colonies. Vancomycin was tested in the same way as a positive control and the culture without antimicrobial agent as a negative control (Xiong et al. [2011]). All experiments were performed in triplicate.

[2] = system: S. typhimurium ATCC14028; experiment: MIC assay; assay type: cell-based; settings: MHB, 1 × 10^5 CFU/ml, 37 °C, 18–24 h, triplicate
Protocol: (§1) The peptide solutions were diluted twofold with the range of final concentrations were 0.015–32 µg/ml (0.003–7.273 µM) for purified H1, H2, H3, H6, and H8. The test strains were grown in MHB medium at 37 °C to an OD600 of 0.4 and diluted to 1 × 10^5 CFU/ml. The 10 µl peptide and 90 µl cell suspension were added into each well. All assays were performed in triplicate. The antimicrobial activity of NZ2114 and vancomycin were tested as positive controls. The plates were incubated at 37 °C for 18–24 h. MIC was defined as the lowest peptide concentration of ones at which there was no visible growth (Tian et al. [2009]).

[3] = system: S. pullorum CVCC1789; experiment: MIC assay; assay type: cell-based; settings: MHB, 1 × 10^5 CFU/ml, 37 °C, 18–24 h, triplicate
Protocol: as §1

[4] = system: S. choleraesuis CVCC503; experiment: MIC assay; assay type: cell-based; settings: MHB, 1 × 10^5 CFU/ml, 37 °C, 18–24 h, triplicate
Protocol: as §1

[5] = system: S. aureus ATCC25923; experiment: MIC assay; assay type: cell-based, Staphylococcus aureus; settings: MHB, 1 × 10^5 CFU/ml, 37 °C, 18–24 h, no visible growth, triplicate
Protocol: as §1

[6] = system: S. aureus ATCC6538; experiment: MIC assay; assay type: cell-based, Staphylococcus aureus; settings: MHB, 1 × 10^5 CFU/ml, 37 °C, 18–24 h, no visible growth, triplicate
Protocol: as §1

[7] = system: S. suis CVCC3309; experiment: MIC assay; assay type: cell-based, Streptococcus suis; settings: MHB, 1 × 10^5 CFU/ml, 37 °C, 18–24 h, triplicate
Protocol: as §1

[8] = system: S. suis CVCC606; experiment: MIC assay; assay type: cell-based, Streptococcus suis; settings: MHB, 1 × 10^5 CFU/ml, 37 °C, 18–24 h, triplicate
Protocol: as §1

[9] = system: S. suis CVCC3928; experiment: MIC assay; assay type: cell-based, Streptococcus suis; settings: MHB, 1 × 10^5 CFU/ml, 37 °C, 18–24 h, triplicate
Protocol: as §1

[10] = system: S. enteritidis CMCC50336; experiment: MIC assay; assay type: cell-based, Salmonella enteritidis; settings: MHB, 1 × 10^5 CFU/ml, 37 °C, 18–24 h, triplicate
Protocol: as §1

[11] = system: S. pneumoniae CVCC1.8722; experiment: MIC assay; assay type: cell-based, Streptococcus pneumoniae; settings: MHB, 1 × 10^5 CFU/ml, 37 °C, 18–24 h, triplicate
Protocol: as §1

[12] = system: S. pneumoniae CVCC2350; experiment: MIC assay; assay type: cell-based, Streptococcus pneumoniae; settings: MHB, 1 × 10^5 CFU/ml, 37 °C, 18–24 h, triplicate
Protocol: as §1

[13] = system: E. coli CVCC195; experiment: MIC assay; assay type: cell-based, Escherichia coli; settings: MHB, 1 × 10^5 CFU/ml, 37 °C, 18–24 h, triplicate
Protocol: as §1

[14] = system: E. coli CICC21530; experiment: MIC assay; assay type: cell-based, Escherichia coli; settings: MHB, 1 × 10^5 CFU/ml, 37 °C, 18–24 h, triplicate
Protocol: as §1

[15] = system: S. aureus ATCC43300; experiment: Effect of NaCl concentration on activity (MIC); assay type: cell-based, Staphylococcus aureus
Protocol: as §1
The effect of pH, temperature, NaCl concentration and proteinase on the activity of peptides was evaluated. Peptides were diluted twofold, then adjusted to a pH range from 2.0 to 10.0 and incubated at 37 °C for 4 h. The thermal stability of purified peptides was determined after 1-h incubation of peptides at 4, 20, 40, 60, 80 and 100 °C in deionized water, respectively. Aliquots of peptides were incubated in various proteinases solutions [pepsin (pH 2.0), trypsin (pH 8.0), proteinase K (pH 7.0)] at a ratio of 1:10, w/w (proteinase: peptide) at 37 °C for 3 h. For the ion stability, peptides were incubated in 50, 100, 200, 300, 400, 500 mM sodium chloride solutions, respectively. Other methods and conditions were prepared as the MIC assay described above (Li et al. [2015]; Qu et al. [2016]).

[16] = system: S. aureus ATCC43300; experiment: microbe, parasite or virus in culture; assay type: cell-based, Staphylococcus aureus; settings: for MICc (MIC of the most effective combination): checkerboard; for FIC: MICc/MICa
Protocol: The MIC values of four antibiotics (vancomycin, ampicillin, rifampicin and ciprofloxacin) to S. aureus ATCC43300 were tested as the MIC assay described above. The peptide solutions and antibiotics were diluted twofold with the final concentrations ranging from 1/16 to 8× MIC, and added into 96-well plates in a checkerboard fashion (White et al. [1996]). The results of combination were evaluated by calculating the fractional inhibitory concentration index (FICI) of each combination. FIC of H1, H2, H3=MIC of H1, H2, H3, respectively, in combination with antibiotic/MIC of H1, H2, H3 alone; FIC of antibiotics=MIC of antibiotic in combination with peptide/MIC of antibiotic alone; FICI = FIC of H1, H2, H3+ antibiotic, respectively. The result of interaction between two antimicrobial drugs was determined according to: FICI ≤ 0.5 refers to synergy, 0.5 < FICI ≤ 1 refers to additivity, 1 < FICI ≤ 4 refers to indifference, and FICI > 4 is defined as antagonism (Tsuji and Rybak [2006]).

[17] = in combination with ciprofloxacin

Question: `CC[C@H](C)[C@@H]1NC(=O)[C@H](CO)NC(=O)[C@H](CCCCN)NC(=O)[C@@H]2CSSC[C@@H](C(=O)N[C@@H](Cc3ccc(O)cc3)C(=O)O)NC(=O)[C@H](CCCCN)NC(=O)[C@@H]3CSSC[C@H](NC(=O)[C@H](CCCNC(=N)N)NC(=O)[C@H](CC(C)C)NC(=O)[C@H](CC(=O)O)NC(=O)[C@H](CC(=O)O)NC(=O)[C@H](CCC(=O)O)NC(=O)[C@H](CC(N)=O)NC(=O)[C@H](Cc4c[nH]c5ccccc45)NC(=O)[C@@H]4CCCN4C(=O)CNC(=O)[C@H](CC(N)=O)NC(=O)[C@@H](NC(=O)CNC(=O)[C@H](Cc4ccccc4)NC(=O)CN)CSSC[C@H](NC(=O)[C@H](Cc4ccc(O)cc4)NC(=O)CNC(=O)CNC(=O)[C@H](CCCCN)NC(=O)[C@H](Cc4ccc(O)cc4)NC(=O)CNC(=O)[C@H](CCCCN)NC1=O)C(=O)N[C@@H](C)C(=O)N[C@@H](CCCCN)C(=O)NCC(=O)NCC(=O)N[C@@H](Cc1ccccc1)C(=O)N[C@@H](C(C)C)C(=O)N3)C(=O)N[C@@H](CCCNC(=N)N)C(=O)N[C@@H](CC(N)=O)C(=O)N[C@@H](Cc1c[nH]cn1)C(=O)N2` [H2] (H-GFGCNGPWNEDDLRCRNHCKSIKGYKGGYCAKGGFVCKCY-OH; disulfide 4-30, 15-37, 19-39 (inferred); N-terminus and C-terminus assumed) was tested. Which “time for bacterial counts to decrease to 2 log10 CFU/ml (a 99.9% reduction)” value ([1]; 1× MIC) did it give?
Answer: 1.5 h

Question: And the “regrowth of pathogens up to 24 h” value ([1]; 1×, 2× and 4× MIC, maintained to 24 h)?
Answer: without regrowth

Question: What about the “time for bacterial counts to decrease to 2 log10 CFU/ml (a 99.9% reduction)” value ([1]; 2× MIC) of the same molecule?
Answer: 1 h

Question: What about the “time for bacterial counts to decrease to 2 log10 CFU/ml (a 99.9% reduction)” value ([1]; 4× MIC) of the same molecule?
Answer: 0.5 h

Question: What about the MIC [2] of the same molecule?
Answer: >7.273 µM

Question: What about the MIC [3] of the same molecule?
Answer: >7.273 µM

Question: And the MIC [4]?
Answer: >7.273 µM

Question: And the MIC [5]?
Answer: 0.028 µM (≈ 0.124 µg/mL)

Question: And the MIC [6]?
Answer: 0.057 µM (≈ 0.253 µg/mL)

Question: And the MIC [7]?
Answer: 0.028 µM (≈ 0.124 µg/mL)

Question: And the MIC [8]?
Answer: 0.028 µM (≈ 0.124 µg/mL)

Question: What about the MIC [9] of the same molecule?
Answer: 0.014 µM (≈ 0.062 µg/mL)

Question: What about the MIC [10] of the same molecule?
Answer: >7.273 µM

Question: And the MIC [11]?
Answer: 0.227 µM (≈ 1.01 µg/mL)

Question: And the MIC [12]?
Answer: 0.227 µM (≈ 1.01 µg/mL)

Question: And the MIC [13]?
Answer: >7.273 µM

Question: What about the MIC [14] of the same molecule?
Answer: >7.273 µM

Question: And the “MIC in 50 mM NaCl” value ([15]; incubated in 50 mM sodium chloride solution)?
Answer: 0.114 µM (≈ 0.505 µg/mL)

Question: And the “MIC in 100 mM NaCl” value ([15]; incubated in 100 mM sodium chloride solution)?
Answer: 0.114 µM (≈ 0.505 µg/mL)

Question: And the “MIC in 300 mM NaCl” value ([15]; incubated in 300 mM sodium chloride solution)?
Answer: 0.227 µM (≈ 1.01 µg/mL)

Question: And the “MIC in 400 mM NaCl” value ([15]; incubated in 400 mM sodium chloride solution)?
Answer: 0.227 µM (≈ 1.01 µg/mL)

Question: And the “MIC in 500 mM NaCl” value ([15]; incubated in 500 mM sodium chloride solution)?
Answer: 0.227 µM (≈ 1.01 µg/mL)

Question: And the “MICc (MIC of the most effective combination)” value (“MICc” for short) ([16]; in combination with ampicillin)?
Answer: 0.113 µM

Question: What about the “MICc” value [16, 17] of the same molecule?
Answer: 0.227 µM

Question: And the “MICc” value ([16]; in combination with rifampicin)?
Answer: 0.056 µM

Question: And the “MICc” value ([16]; in combination with vancomycin)?
Answer: 0.113 µM

Question: And the MIC ([16]; drug alone, read-out: MICa (MIC of drug alone))?
Answer: 0.113 µM

Question: And the FIC ([16]; in combination with ampicillin)?
Answer: 1

Question: What about the FIC [16, 17] of the same molecule?
Answer: 2

Question: And the FIC ([16]; in combination with rifampicin)?
Answer: 0.5

Question: What about the FIC ([16]; in combination with vancomycin) of the same molecule?
Answer: 1
